ChEMBL document CHEMBL4507268 (2021)

Tests used:
[1] = biological target: Cytoplasmic tyrosine-protein kinase BMX (Homo sapiens) (UniProt P51813); settings: Compound concentration 1000.0 nM
[2] = biological target: Calcium/calmodulin-dependent protein kinase type 1B (Homo sapiens) (UniProt Q6P2M8); settings: Compound concentration 1000.0 nM
[3] = biological target: Cyclin-dependent kinase-like 5 (Homo sapiens) (UniProt O76039); settings: Compound concentration 1000.0 nM
[4] = biological target: Dual specificity protein kinase CLK3 (Homo sapiens) (UniProt P49761); settings: Compound concentration 1000.0 nM
[5] = biological target: Focal adhesion kinase 1 (Homo sapiens) (UniProt Q05397); settings: Compound concentration 1000.0 nM
[6] = biological target: Tyrosine-protein kinase JAK2 (Homo sapiens) (UniProt O60674); settings: Compound concentration 1000.0 nM
[7] = biological target: T1, Tyrosine-protein kinase Mer (Homo sapiens) (UniProt Q12866); settings: Compound concentration 1000.0 nM
T1 sequence (whole entry): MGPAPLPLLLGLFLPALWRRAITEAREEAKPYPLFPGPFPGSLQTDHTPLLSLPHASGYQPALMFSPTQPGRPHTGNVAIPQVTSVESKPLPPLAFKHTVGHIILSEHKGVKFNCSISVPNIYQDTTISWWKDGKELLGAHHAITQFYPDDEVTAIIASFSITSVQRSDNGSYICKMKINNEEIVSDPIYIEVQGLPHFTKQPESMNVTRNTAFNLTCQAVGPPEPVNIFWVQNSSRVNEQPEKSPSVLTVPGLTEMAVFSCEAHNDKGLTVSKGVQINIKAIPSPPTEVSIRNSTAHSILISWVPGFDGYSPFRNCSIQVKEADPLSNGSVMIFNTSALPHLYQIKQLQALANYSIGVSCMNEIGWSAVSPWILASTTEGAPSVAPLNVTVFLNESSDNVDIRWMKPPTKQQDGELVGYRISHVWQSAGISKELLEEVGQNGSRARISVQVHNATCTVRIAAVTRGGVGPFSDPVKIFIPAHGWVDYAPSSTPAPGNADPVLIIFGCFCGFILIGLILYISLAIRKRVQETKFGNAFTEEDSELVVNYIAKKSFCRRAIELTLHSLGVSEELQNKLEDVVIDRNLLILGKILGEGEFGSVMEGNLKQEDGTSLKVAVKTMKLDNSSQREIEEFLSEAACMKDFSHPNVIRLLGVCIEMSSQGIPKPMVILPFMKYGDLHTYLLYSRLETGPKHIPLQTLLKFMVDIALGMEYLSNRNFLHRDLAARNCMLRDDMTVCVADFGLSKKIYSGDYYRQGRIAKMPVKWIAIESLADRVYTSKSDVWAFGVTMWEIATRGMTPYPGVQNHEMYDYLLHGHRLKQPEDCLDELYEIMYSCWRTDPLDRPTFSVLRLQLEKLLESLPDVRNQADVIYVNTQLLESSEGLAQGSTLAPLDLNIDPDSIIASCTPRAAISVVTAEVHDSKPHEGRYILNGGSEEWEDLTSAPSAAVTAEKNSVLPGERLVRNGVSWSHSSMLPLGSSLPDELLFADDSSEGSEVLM

[8] = biological target: Phosphatidylinositol 4,5-bisphosphate 3-kinase catalytic subunit gamma isoform (Homo sapiens) (UniProt P48736); settings: Compound concentration 1000.0 nM
[9] = biological target: Serine/threonine-protein kinase PLK1 (Homo sapiens) (UniProt P53350); settings: Compound concentration 1000.0 nM
[10] = biological target: Serine/threonine-protein kinase RIO3 (Homo sapiens) (UniProt O14730); settings: Compound concentration 1000.0 nM
[11] = biological target: Rho-associated protein kinase 2 (Homo sapiens) (UniProt O75116); settings: Compound concentration 1000.0 nM
[12] = biological target: Tyrosine-protein kinase Srms (Homo sapiens) (UniProt Q9H3Y6); settings: Compound concentration 1000.0 nM
[13] = biological target: TGF-beta receptor type-2 (Homo sapiens) (UniProt P37173); settings: Compound concentration 1000.0 nM
[14] = biological target: T2, Serine/threonine-protein kinase ULK2 (Homo sapiens) (UniProt Q8IYT8); settings: Compound concentration 1000.0 nM
T2 sequence (whole entry): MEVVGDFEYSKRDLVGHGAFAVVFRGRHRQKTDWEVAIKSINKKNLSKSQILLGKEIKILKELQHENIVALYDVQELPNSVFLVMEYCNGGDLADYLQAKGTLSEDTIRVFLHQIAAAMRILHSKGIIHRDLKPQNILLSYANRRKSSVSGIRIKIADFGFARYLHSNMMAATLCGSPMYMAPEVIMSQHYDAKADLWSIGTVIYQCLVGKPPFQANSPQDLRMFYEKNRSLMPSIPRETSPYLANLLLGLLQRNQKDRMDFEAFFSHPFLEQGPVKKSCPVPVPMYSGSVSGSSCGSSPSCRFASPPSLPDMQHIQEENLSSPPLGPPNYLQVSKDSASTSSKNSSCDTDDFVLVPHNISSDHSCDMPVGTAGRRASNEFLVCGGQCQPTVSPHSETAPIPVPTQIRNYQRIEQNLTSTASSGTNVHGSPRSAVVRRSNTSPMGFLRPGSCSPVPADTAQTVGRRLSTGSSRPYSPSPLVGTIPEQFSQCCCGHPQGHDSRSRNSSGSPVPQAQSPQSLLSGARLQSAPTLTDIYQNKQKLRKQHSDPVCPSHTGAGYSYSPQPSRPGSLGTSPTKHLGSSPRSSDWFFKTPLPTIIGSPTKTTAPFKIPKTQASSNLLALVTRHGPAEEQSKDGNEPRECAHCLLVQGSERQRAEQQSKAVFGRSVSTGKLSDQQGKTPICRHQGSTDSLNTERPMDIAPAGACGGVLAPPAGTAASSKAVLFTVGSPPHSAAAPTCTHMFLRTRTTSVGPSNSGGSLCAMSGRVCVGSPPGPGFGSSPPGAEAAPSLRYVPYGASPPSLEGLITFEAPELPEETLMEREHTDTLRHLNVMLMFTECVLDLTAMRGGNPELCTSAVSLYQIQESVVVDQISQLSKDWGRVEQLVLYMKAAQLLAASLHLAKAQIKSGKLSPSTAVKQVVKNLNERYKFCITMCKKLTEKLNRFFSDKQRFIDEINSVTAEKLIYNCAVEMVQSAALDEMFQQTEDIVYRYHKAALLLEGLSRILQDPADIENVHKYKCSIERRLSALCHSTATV

[15] = biological target: 5-hydroxytryptamine receptor 5A (Homo sapiens) (UniProt P47898); settings: Compound concentration 10.0 uM
Chain of 5-hydroxytryptamine receptor 5A (Homo sapiens) (P47898 whole entry): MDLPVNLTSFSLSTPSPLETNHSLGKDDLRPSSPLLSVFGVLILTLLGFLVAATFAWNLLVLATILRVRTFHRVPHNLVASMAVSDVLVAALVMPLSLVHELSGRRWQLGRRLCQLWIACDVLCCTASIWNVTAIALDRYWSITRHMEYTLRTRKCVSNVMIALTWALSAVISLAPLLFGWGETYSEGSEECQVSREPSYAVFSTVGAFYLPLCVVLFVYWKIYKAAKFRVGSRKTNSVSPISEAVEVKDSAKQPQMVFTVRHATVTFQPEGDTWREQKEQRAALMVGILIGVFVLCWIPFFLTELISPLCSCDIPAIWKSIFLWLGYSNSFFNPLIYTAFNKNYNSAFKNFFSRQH

Chain of Cyclin-dependent kinase-like 5 (Homo sapiens) (O76039 whole entry): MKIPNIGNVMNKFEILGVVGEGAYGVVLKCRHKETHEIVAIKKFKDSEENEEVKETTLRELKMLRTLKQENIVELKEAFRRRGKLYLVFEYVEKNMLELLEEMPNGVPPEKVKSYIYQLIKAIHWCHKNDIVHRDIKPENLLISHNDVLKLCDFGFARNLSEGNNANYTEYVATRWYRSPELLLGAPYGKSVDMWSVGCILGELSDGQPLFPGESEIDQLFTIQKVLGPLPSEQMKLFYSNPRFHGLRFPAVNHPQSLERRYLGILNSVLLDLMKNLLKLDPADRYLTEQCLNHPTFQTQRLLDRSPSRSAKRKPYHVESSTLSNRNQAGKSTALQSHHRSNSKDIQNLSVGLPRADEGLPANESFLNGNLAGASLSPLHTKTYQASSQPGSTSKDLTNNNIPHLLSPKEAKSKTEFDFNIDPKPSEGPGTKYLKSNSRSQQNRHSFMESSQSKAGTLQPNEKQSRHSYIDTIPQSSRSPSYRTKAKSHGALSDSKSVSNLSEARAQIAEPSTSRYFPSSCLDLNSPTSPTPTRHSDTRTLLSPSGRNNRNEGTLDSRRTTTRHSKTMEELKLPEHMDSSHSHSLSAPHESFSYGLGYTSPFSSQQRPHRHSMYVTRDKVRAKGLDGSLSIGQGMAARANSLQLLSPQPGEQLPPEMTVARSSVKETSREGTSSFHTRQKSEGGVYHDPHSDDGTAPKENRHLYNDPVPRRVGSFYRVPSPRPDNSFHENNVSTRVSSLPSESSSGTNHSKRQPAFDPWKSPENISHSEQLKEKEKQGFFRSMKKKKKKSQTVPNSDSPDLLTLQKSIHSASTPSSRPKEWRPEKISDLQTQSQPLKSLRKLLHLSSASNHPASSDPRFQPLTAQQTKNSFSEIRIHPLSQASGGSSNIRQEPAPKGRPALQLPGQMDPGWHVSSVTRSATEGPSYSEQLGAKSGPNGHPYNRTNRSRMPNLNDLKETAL
Chain of Serine/threonine-protein kinase PLK1 (Homo sapiens) (P53350 whole entry): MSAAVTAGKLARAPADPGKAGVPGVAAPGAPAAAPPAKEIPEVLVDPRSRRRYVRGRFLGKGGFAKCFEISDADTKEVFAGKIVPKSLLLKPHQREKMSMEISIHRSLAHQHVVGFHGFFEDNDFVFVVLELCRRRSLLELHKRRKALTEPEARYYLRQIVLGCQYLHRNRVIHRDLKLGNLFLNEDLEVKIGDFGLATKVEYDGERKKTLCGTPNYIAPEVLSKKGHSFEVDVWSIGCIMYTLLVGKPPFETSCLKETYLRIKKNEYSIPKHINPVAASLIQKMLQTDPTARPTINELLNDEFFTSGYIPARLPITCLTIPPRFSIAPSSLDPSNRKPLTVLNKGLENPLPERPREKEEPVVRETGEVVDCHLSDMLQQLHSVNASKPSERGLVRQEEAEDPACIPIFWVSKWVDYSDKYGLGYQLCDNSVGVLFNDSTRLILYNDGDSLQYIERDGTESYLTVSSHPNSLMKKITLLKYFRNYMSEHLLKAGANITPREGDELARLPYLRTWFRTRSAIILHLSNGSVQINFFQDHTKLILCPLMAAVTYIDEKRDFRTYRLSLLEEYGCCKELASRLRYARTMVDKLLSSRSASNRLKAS
Chain of TGF-beta receptor type-2 (Homo sapiens) (P37173 whole entry): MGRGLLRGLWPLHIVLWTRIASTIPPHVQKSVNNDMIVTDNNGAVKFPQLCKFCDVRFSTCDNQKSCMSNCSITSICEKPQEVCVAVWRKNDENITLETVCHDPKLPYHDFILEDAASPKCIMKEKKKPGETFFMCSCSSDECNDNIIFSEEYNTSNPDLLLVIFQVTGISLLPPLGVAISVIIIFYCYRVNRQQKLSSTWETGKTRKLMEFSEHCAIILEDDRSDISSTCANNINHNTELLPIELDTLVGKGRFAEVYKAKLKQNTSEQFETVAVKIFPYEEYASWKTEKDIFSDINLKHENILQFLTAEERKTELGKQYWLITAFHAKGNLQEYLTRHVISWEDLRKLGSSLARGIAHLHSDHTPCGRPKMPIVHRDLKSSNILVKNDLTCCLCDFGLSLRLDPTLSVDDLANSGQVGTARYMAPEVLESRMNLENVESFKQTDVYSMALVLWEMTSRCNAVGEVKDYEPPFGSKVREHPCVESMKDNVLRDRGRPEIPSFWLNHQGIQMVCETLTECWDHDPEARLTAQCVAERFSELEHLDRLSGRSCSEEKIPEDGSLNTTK
Chain of Tyrosine-protein kinase JAK2 (Homo sapiens) (O60674 whole entry): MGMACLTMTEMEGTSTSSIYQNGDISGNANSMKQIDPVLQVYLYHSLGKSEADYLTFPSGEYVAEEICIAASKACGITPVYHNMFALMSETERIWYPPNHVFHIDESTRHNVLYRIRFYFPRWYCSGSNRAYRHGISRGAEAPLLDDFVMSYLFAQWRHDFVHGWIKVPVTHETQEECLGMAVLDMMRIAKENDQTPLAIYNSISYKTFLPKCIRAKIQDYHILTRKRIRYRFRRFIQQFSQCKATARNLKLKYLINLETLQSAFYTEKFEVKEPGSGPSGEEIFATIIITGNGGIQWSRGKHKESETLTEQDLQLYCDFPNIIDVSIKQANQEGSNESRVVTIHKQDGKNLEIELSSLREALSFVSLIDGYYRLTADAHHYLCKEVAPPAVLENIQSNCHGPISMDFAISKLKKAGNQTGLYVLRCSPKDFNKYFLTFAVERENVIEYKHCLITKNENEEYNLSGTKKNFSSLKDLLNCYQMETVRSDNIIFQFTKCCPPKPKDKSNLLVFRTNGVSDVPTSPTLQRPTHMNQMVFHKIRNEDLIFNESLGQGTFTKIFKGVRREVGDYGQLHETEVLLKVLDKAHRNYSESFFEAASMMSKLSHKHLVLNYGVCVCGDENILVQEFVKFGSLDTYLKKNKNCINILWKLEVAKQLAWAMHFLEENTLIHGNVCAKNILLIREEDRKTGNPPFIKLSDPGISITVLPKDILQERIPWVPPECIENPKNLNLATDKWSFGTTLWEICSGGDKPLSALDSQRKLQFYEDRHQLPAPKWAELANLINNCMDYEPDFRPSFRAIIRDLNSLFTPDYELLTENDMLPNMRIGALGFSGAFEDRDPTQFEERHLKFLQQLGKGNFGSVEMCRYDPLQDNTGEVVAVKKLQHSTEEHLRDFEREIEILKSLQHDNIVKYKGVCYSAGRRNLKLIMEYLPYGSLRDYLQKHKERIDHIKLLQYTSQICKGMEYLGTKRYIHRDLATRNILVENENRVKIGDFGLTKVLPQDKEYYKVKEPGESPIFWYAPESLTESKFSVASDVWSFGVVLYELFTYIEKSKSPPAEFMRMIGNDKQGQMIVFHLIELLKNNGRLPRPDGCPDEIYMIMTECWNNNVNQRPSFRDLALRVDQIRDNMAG
Chain of Calcium/calmodulin-dependent protein kinase type 1B (Homo sapiens) (Q6P2M8 whole entry): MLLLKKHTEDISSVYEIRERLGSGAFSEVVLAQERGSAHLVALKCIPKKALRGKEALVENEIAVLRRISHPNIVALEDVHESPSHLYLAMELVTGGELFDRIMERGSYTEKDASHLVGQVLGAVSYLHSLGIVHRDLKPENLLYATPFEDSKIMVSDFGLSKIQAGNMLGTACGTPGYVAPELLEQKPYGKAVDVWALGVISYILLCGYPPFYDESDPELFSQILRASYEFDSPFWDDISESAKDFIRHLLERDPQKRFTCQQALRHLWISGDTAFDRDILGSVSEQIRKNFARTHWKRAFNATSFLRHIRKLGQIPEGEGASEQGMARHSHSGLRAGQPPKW
Chain of Dual specificity protein kinase CLK3 (Homo sapiens) (P49761 whole entry, looked up): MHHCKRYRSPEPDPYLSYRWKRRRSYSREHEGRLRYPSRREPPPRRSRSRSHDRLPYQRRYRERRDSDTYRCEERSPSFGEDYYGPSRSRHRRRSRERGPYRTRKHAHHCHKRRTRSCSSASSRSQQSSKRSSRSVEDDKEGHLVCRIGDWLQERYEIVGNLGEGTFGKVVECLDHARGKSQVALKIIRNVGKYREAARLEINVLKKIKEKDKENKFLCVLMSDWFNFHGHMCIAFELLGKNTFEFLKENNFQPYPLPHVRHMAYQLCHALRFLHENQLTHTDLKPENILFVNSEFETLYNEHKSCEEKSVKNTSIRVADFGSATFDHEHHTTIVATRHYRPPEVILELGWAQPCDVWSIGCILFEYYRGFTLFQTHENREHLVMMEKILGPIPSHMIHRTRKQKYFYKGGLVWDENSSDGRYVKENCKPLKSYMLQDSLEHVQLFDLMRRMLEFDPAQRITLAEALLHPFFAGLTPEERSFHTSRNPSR
Chain of Tyrosine-protein kinase Srms (Homo sapiens) (Q9H3Y6 whole entry): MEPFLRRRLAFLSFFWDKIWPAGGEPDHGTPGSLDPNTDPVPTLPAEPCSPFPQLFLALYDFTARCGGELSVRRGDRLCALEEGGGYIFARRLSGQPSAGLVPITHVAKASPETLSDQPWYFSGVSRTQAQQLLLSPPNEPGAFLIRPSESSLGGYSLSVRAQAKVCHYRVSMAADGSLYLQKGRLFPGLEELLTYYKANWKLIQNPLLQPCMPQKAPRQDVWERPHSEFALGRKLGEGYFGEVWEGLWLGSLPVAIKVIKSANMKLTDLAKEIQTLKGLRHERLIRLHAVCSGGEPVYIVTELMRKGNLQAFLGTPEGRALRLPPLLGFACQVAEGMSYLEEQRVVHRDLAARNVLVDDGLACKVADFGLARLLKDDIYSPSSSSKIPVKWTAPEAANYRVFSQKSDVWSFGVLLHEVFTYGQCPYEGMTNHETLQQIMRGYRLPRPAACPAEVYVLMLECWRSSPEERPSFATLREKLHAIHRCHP

CN1CCN(c2cnc3c(C4CCN(C(=O)c5ccc(OC(F)(F)F)cc5N)CC4)ncnc3c2)CC1 [BAY-885]
inactive: residual activity [1] 100% | residual activity [2] 100% | residual activity [3] 93% | residual activity [4] 100% | residual activity [5] 100% | residual activity [6] 83% | residual activity [7] 75% | residual activity [8] 95% | residual activity [9] 93% | residual activity [10] 97% | residual activity [11] 100% | residual activity [12] 100% | residual activity [13] 88% | residual activity [14] 100% | inhibition [15] -1.47%

Cc1nc(C2CCN(C(=O)c3ccc(OC(F)(F)F)cc3N)CC2)c2ncc(N3CCN(C)CC3)cc2n1 [BAY-693]
inactive: residual activity [1] 100% | residual activity [2] 100% | residual activity [3] 89% | residual activity [4] 94% | residual activity [5] 91% | residual activity [6] 99% | residual activity [7] 87% | residual activity [8] 79% | residual activity [9] 79% | residual activity [10] 87% | residual activity [11] 91% | residual activity [12] 100% | residual activity [13] 93% | residual activity [14] 100% | inhibition [15] -3.74%
